Measurements as given in patent publication US20190152946A1, “Novel Compounds” (GlaxoSmithKline Intellectual Property Development Limited, priority 2016, published 2019).

Molecular target: T1, IRAK3 (Homo sapiens, UniProt Q9Y616)
T1 construct: endogenous in cells; host or cells: THP-1
T1 sequence (Q9Y616 1-596): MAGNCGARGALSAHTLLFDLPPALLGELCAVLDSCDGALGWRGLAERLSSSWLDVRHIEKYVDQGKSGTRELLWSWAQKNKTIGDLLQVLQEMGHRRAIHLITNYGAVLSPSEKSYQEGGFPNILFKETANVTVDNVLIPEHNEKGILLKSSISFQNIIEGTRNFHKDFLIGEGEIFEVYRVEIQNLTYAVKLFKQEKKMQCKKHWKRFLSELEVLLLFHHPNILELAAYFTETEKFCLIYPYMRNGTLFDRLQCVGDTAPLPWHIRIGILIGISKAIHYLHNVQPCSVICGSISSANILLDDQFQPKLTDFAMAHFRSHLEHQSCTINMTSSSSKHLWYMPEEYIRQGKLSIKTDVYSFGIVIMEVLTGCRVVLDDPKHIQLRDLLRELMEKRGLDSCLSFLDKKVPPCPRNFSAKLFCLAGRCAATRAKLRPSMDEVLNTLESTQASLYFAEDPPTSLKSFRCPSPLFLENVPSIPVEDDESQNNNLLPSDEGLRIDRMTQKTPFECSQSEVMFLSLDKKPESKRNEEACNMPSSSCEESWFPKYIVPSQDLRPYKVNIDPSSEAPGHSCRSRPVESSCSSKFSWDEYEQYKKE
Assay: Expression proteomics in THP-1 cells, IRAK3 level
Format: cell-based
Conditions: IRAK3 protein log2 fold change, 24 h, 1.0 μM
Procedure: THP-1 cells were seeded at a concentration of 3×10^6 cells in T175 flasks with 60 mL growth medium (RPM11640+10% FBS). […] of a 10× compound solution prepared in growth medium (DMSO), IAP PROTAC) was added and the cells were treated for the indicated time points (6 or 24 h) at 37° C., 5% CO2. For harvesting the cells were collected into falcon tubes on ice, centrifuged and washed twice in cold PBS (Life technologies). After the last washing step the supernatant was removed and the pellets were snap-frozen in liquid N2 and stored at −80° C. and lysed in 2% SDS for 3 min at 95° C. in a thermomixer (Thermo Fisher Scientific), followed by digestion of DNA with Benzonase at 37° C. for 1.5 h. Lysate was cleared by centrifugation an protein concentration in supernatant was determined by BCA assay.
Leukemia 25, 89-100 (2011).
Samples were dried in vacuo and resuspended in 0.05% trifluoroacetic acid in water. […]
Reporter ion intensities were read from raw data and multiplied with ion accumulation times (the unit is milliseconds) so as to yield a measure proportional to the number of ions;
Nat Biotech 29, 255-265 (2011). this measure is referred to as ion area Savitski, M. M. et al. Delayed Fragmentation and Optimized Isolation Width Settings for Improvement of Protein Identification and Accuracy of Isobaric Mass Tag Quantification on Orbitrap-Type Mass Spectrometers. […]

## CNC(=O)c1ccccc1Nc1nc(Nc2ccc(N3CCN(CCOCCOCCOCCOc4ccc5c(c4)CN(C(=O)[C@@H](NC(=O)[C@H](C)NC)C(C)(C)C)[C@H](C(=O)N[C@@H]4CCCc6ccccc64)C5)CC3)cc2)ncc1Cl [IAP, (S)-7-(2-(2-(2-(2-(4-(4-((5-Chloro-4-((2-(methylcarbamoyl)phenyl)amino)pyrimidin-2-yl)amino)phenyl)piperazin-1-yl)ethoxy)ethoxy)ethoxy)ethoxy)-2-((S)-3,3-dimethyl-2-((S)-2-(methylamino)propanamido)butanoyl)-N-((R)-1,2,3,4-tetrahydronaphthalen-1-yl)-1,2,3,4-tetrahydroisoquinoline-3-carboxamide]
Replicate n1
  log2fc_IAP_24 h_1.0 μM_n1: −2.28
Replicate n2
  log2fc_IAP_24 h_1.0 μM_n2: −2.47
